{
  "source": "patent US9555061B2",
  "about": "“Synthesis and analysis of compounds capable of inducing differentiation of human mesenchymal stems cells into hepatocytes” (National University Corporation Torrori University, priority 2011, dated 2017)",
  "key": {"[1]": {"tested_on": "UE7T-13 cells", "assay": "Proliferation potential (toxicity), MTT assay (UE7T-13)", "conditions": "for concentration with very low cell toxicity toward UE7T-13 cells: days 2, 4, 8 of treatment"}, "[2]": {"tested_on": "Wnt/β-catenin signaling pathway", "assay": "Ability of inhibiting Wnt/β-catenin pathway, luciferase assay (UE7T-13)", "type": "cell-based, human", "conditions": "8 days after the treatment; pTCF4-CMV-luciferase reporter", "description": "FIG. 3 is a schematic diagram illustrating how to establish a human mesenchymal stem cell stably expressing a β-catenin/TCF4/luciferase reporter gene. FIG. 3 illustrates how to construct pTCF4-CMVpro-GL4.20 plasmid by using a luciferase expression vector. The pTCF4-CMVpro-GL4.20 plasmid contains three TCF4 sequences […] upstream of a CMV promoter to express luciferase. In addition, pCMVpro-GL4.20 plasmid was constructed as a control. The resulting plasmids were each linearized, introduced into UE7T-13 by electroporation, and selected using puromycin (0.25 μg/ml) supplemented in a medium. Puromycin-resistant cells were cloned and used for a luciferase assay.\nThe cell line having a vector stably expressing luciferase was seeded on a 24-well plate, and was cultured at 37° C. At the next day, the medium was changed to a medium containing IC-2, etc., and the cell line was further cultured at 37° C. After that, at days 1, 4, and 8, a luciferase assay system (Promega) was used and the luciferase activity was read with a fluorescence plate reader (ARVO) at a wavelength of 556 nm."}, "[3]": {"tested_on": "UE7T-13 cells", "assay": "Periodic acid-Schiff (PAS) staining (UE7T-13)", "type": "cell-based, human", "experimental": "(3-4) Periodic Acid-Schiff (PAS) Staining (UE7T-13) A cover glass (22×22 mm, […]) was sterilized with 70% EtOH and placed in a 6-well plate. Next, cells were seeded on the cover glass and cultured in a medium containing IC-2, etc. At 8, 16, and 24 days after the initiation of the culture, the cells were washed twice with PBS. Then, the cells were treated with 4% paraformaldehyde/PBS for 20 min and fixed onto the cover glass. As a negative control, 10 mg/ml of α-amylase (10 mg/ml; in 0.1 M phosphate buffer solution at pH 6.8) was added, and the cells were incubated therewith at 37° C. for 1 h to digest their glycogen. Subsequently, 1% aqueous periodic acid was used for oxidation treatment for 10 min. After that, the cells were treated with a Schiff reagent for 15 min to stain glycogen. Then, the cells were washed three times with aqueous sulfurous acid and were washed three times with distilled water. After their nuclei were stained with Mayer's hematoxylin, 50% glycerol diluted with PBS was used to mount the cover glass. Finally, the cells were observed under a light microscope. The cells which had been cultured with 0.1% DMSO were used as a control."}, "[4]": {"tested_on": "UE7T-13 cells", "assay": "RT-PCR of genes encoding liver-specific secretory proteins and cytokines (UE7T-13)", "type": "cell-based, human", "conditions": "hexachlorophene 0.8 μM or IC-2 15 μM; days 8, 16, 24", "experimental": "Bone marrow-derived mesenchymal stem cells (UE7T-13 cells) were treated with a compound, hexachlorophene (H4625-25G; Sigma-Aldrich, Inc.) or IC-2. At that time, gene expression of each of liver-specific secretory proteins and cytokines was evaluated. […] This time point was set to day 0.\nAt the next day corresponding to day 1, the medium was changed to DMEM containing hexachlorophene at a final concentration of 0.8 μM or IC-2 at a final concentration of 15 μM. […] After that, the medium was replaced twice during 8 days, and the cells were subcultured every 8 days. Then, the similar operation was carried out until day 24. At days 8, 16, and 24 after the initiation of the induction, TRIzol (Invitrogen) was used to extract total RNA according to the attached instruction. After the extraction, deoxyribonuclease (Nippon Gene) was added, and the mixture was incubated at 37° C. for 30 min to remove DNA. In a reverse transcription reaction, SuperScriptII Reverse Transcriptase (Invitrogen) and Oligo(dT)15 primer were added to 1 μg of RNA to convert it into cDNA. In a RT-PCR method, the cDNA was diluted by 5 times. Next, 1 μl of the cDNA was used as a template. Then, rTaq DNA polymerase (TOYOBO) was used to amplify the cDNA. MQ water was used as a negative control. cDNA from Huh-7 or UE7T-13 cells was used as a positive control. […]"}, "[5]": {"tested_on": "CD90+CD271+ bone marrow-derived mesenchymal stem cells", "assay": "Urea assay in CD90+CD271+ bone marrow-derived mesenchymal stem cells", "type": "cell-based, human", "conditions": "hexachlorophene 4 μM, PN-3-13 20 μM, IC-2 40 μM; day 8 plus 96 h ammonium chloride", "experimental": "A urea assay was performed according to the following protocol. CD90^+CD271^+ bone marrow-derived mesenchymal stem cells were seeded on a 24-well plate at a cell density of 1.8×10^4 cells/cm^2. This day was designated as day 0. At day 1 corresponding to the next day, each medium was changed to a medium containing hexachlorophene (at a final concentration of 4 μM), HC-2 (at a final concentration of 20 μM), PN-3-13 (at a final concentration of 20 μM), IC-2 (at a final concentration of 40 μM), or 0.1% DMSO. At day 4, the medium was changed in a manner similar to that at day 1, and the cells were cultured until day 8. At day 8, the medium was removed, and replaced with a medium containing ammonium chloride (Nacalai Tesque) at a final concentration of 5 mM. The cells were further cultured for 96 h. At 96 h after the addition of ammonium chloride, levels of urea in the medium were determined using a QuantiChrom Urea Assay Kit (BioAssay Systems) according to the attached protocol by reading the absorbance at a wavelength of 520 nm with a microplate reader. The levels of urea were calculated based on a standard sample according to the attached calculation method. As a negative control for the urea assay, used were CD90^+CD271^+ bone marrow-derived mesenchymal stem cells that were seeded one day before the day of the immunostaining and were not subjected to the differentiation induction."}, "[6]": {"tested_on": "clinical specimen-derived mesenchymal stem cells", "assay": "RT-PCR of hepatocyte differentiation marker in clinical specimen-derived mesenchymal stem cells", "type": "cell-based, human", "conditions": "hexachlorophene 4 μM, HC-2 20 μM, PN-3-13 20 μM, IC-2 40 μM", "experimental": "A fresh bone marrow aspirate was collected under informed consent from a patient (a person) with osteoarthritis who underwent replacement arthroplasty at the Department of Orthopedic Surgery, Tottori University Hospital. This aspirate was subjected to density gradient centrifugation using ficoll (Amersham Biosciences) to separate bone marrow mononuclear cells (FIG. 31). These bone marrow mononuclear cells were suspended in 1 ml of Hanks' balanced salt solution (HBSS, Gibco, Life Technologies Corp.) supplemented with a 100-fold diluted APC-labeled anti-CD90 antibody, a 407-fold diluted PE-labeled anti-CD271 antibody, and 2% fetal bovine serum (FBS, Defined, Thermo Fisher Scientific Inc.), and were stained on ice for 30 min. A flow cytometer (MoFlo XDP, Beckman Coulter Inc.) was used to selectively separate mesenchymal stem cells. The resulting cells were cultured in Dulbecco's Modified Eagle's Medium (Low Glucose, Gibco, Life Technologies Corp.) containing 20% FBS, 100 U/ml penicillin, […] streptomycin (Nacalai Tesque), and 20 ng/ml basic fibroblast growth factor (TRANS GENIC INC., Ltd.) on a 35-mm dish under conditions at 37° C. and 5% CO2. The medium was changed every 4 days. After colonies were formed, the cells were detached using a 0.025% trypsin/1 mM EDTA solution (Nacalai Tesque), split on a 100-mm dish, and cultured under conditions at 37° C. and 5% CO2. Then, the cells which were kept 70 to 80% confluent were detached using trypsin treatment. These cells in one dish were divided into four dishes for passage.\nCells were seeded on a 6-well plate at a cell density of 1.8×10^4 cells/cm^2. This day was designated as day 0. At day 1 corresponding to the next day, the medium was changed to a medium containing any one of hexachlorophene (at a final concentration of 4 μM), HC-2 (at a final concentration of 20 μM), PN-3-13 (at a final concentration of 20 μM), IC-2 (at a final concentration of 40 μM), and 0.1% DMSO. […]"}},
  "data": [
    {"smiles": "Cc1ccc(/C=N/NC(=O)c2cccc(Oc3ccccc3)c2)o1", "note": "[PN-1-2, N′-[(E)-(5-methyl-2-fulyl)methylidene]-3-phenoxybenzohydrazide]", "values": [
      {"measurement": "concentration at which proliferation potential did not remain", "setting": "[1]; day 8", "result": 10, "unit": "µM"},
      {"measurement": "concentration with very low cell toxicity toward UE7T-13 cells", "setting": "[1]", "result": "≤ 40", "unit": "µM"},
      {"measurement": "concentration that significantly inhibited the Wnt/β-catenin signaling pathway", "setting": "[2]", "result": "≥ 3", "unit": "µM"}
    ]},
    {"smiles": "O=C(N/N=C/c1cccc2ccccc12)c1ccccc1Oc1ccccc1", "note": "[PN-3-4, N′-[(E)-1-naphtylmethylidene]-2-phenoxybenzohydrazide]", "values": [
      {"measurement": "concentration with very low cell toxicity toward UE7T-13 cells", "setting": "[1]", "result": "≤ 30", "unit": "µM"},
      {"measurement": "concentration that significantly inhibited the Wnt/β-catenin signaling pathway", "setting": "[2]", "result": "≥ 20", "unit": "µM"}
    ]},
    {"smiles": "Cc1ccc(C=NNC(=O)c2ccccc2Oc2ccccc2)o1", "note": "[PNU-74654, N-[(5-methyl-2-furyl)methylideneamino]-2-phenoxy-benzamide]", "values": [
      {"measurement": "intracellular glycogen accumulation compared with negative control (0.1% DMSO)", "setting": "[3]", "result": "did not increase"}
    ]},
    {"smiles": "Oc1c(Cl)cc(Cl)c(Cl)c1Cc1c(O)c(Cl)cc(Cl)c1Cl", "note": "[hexachlorophene, reference compound]", "values": [
      {"measurement": "expression of a plurality of the liver-specific secretory proteins and cytokines", "setting": "[4]", "result": "increased levels of expression"},
      {"measurement": "cellular urea synthesis compared with negative control (0.1% DMSO)", "setting": "[5]", "result": "apparent increase"},
      {"measurement": "expression of albumin", "setting": "[6]", "result": "induced"}
    ]}
  ]
}
